≈ marks a conversion by molar mass, not a printed value. Positions of bridges follow the written chain, without caps; N, C: chain ends. Non-standard residues stand in square brackets, D forms with d. Residues, ends and D or L forms follow the SMILES beside them. *: point of attachment. Ileψ(thiazoline)Cys = CC[C@H](C)[C@H](N)C1=N[C@H](C(=O)*)CS1; dOrn = NCCC[C@@H](N)C(=O)O
What was measured:
Peptococcus prevoti = assay: Activity against anaerobic bacteria, agar-dilution MIC; conditions: Peptococcus prevoti; anaerobe, agar dilution, read after 24-hour incubation
[1] = test system: Peptostreptococcus intermedius; assay: as above; assay type: cell-based; conditions: Peptostreptococcus intermedius; anaerobe, agar dilution, read after 24-hour incubation
[2] = test system: Enterococcus faecalis 2041; assay type: cell-based; conditions: Enterococcus faecalis 2041; agar dilution
Protocol: (§1) The MIC's in Table VII were determined by standard agar-dilution assays.

[3] = test system: Staphylococcus aureus V41; assay type: cell-based; conditions: Staphylococcus aureus V41; agar dilution
Protocol: as §1

[4] = test system: Staphylococcus epidermidis 222; assay type: cell-based; conditions: Staphylococcus epidermidis 222; agar dilution
Protocol: as §1

[5] = test system: Staphylococcus aureus X400; assay type: cell-based; conditions: Staphylococcus aureus X400; agar dilution
Protocol: as §1

[6] = test system: Staphylococcus epidermidis 270; assay type: cell-based; conditions: Staphylococcus epidermidis 270; agar dilution
Protocol: as §1

[7] = test system: Staphylococcus aureus X1.1; assay type: cell-based; conditions: Staphylococcus aureus X1.1; agar dilution
Protocol: as §1

[8] = test system: Streptococcus pyogenes C203; assay type: cell-based; conditions: Streptococcus pyogenes C203; agar dilution
Protocol: as §1

Enterococcus faecium X66 = assay type: cell-based; conditions: Enterococcus faecium X66; agar dilution
Protocol: as §1

[9] = test system: Streptococcus pneumoniae Park 1; assay: microbe, parasite or virus in culture; assay type: cell-based; conditions: Streptococcus pneumoniae Park 1; agar dilution
Protocol: as §1

[10] = test system: Peptococcus asaccharolyticus; assay: Activity against anaerobic bacteria, agar-dilution MIC; conditions: Peptococcus asaccharolyticus; anaerobe, agar dilution, read after 24-hour incubation
Bacteriodes fragilis = assay: as above; assay type: cell-based; conditions: Bacteriodes fragilis; anaerobe, agar dilution, read after 24-hour incubation
[11] = test system: Bacteriodes thetaiotaomicron; assay: as above; conditions: Bacteriodes thetaiotaomicron; anaerobe, agar dilution, read after 24-hour incubation
[12] = test system: Peptostreptococcus anaerobius; assay: as above; assay type: cell-based; conditions: anaerobe, agar dilution, read after 24-hour incubation
Streptococcus pyogenes = assay: In vivo activity against experimentally-induced infection in mice; conditions: doses administered subcutaneously to mice 1 and 4 hours postinfection
Protocol: (§2) The A83850 antibiotics have also shown in vivo antimicrobial activity against experimentally-induced infections in laboratory animals. When two doses of test compound were administered to mice experimentally infected with the test organism, the activity observed was measured as an ED50 value [effective dose in mg/kg to protect 50% of the test animals: see Warren Wick, et al., J. Bacteriol. 81, 233-235 (1961)].
(§3) ^a mg/kg × 2; doses administered subcutaneously to mice 1 and 4

Streptococcus pneumoniae = assay: as above; conditions: doses administered subcutaneously to mice 1 and 4 hours postinfection
Protocol: as §2, §3

Staphylococcus aureus = assay: as above; conditions: doses administered subcutaneously to mice 1 and 4 hours postinfection
Protocol: as §2, §3

Eubacterium aerofaciens = conditions: anaerobe, agar dilution, read after 24-hour incubation
Clostridium perfringens = conditions: anaerobe, agar dilution, read after 24-hour incubation
Bacteroides corrodens = assay: Activity against anaerobic bacteria, agar-dilution MIC; assay type: cell-based; conditions: Bacteroides corrodens; anaerobe, agar dilution, read after 24-hour incubation
[13] = test system: Fusobacterium necrophorum; conditions: anaerobe, agar dilution, read after 24-hour incubation
Fusobacterium symbiosum = conditions: anaerobe, agar dilution, read after 24-hour incubation
Bacteriodes vulgatis = assay: Activity against anaerobic bacteria, agar-dilution MIC; conditions: Bacteriodes vulgatis; anaerobe, agar dilution, read after 24-hour incubation
Propionibacterium acnes = assay: as above; assay type: cell-based; conditions: Propionibacterium acnes; anaerobe, agar dilution, read after 24-hour incubation
[14] = test system: Bacteriodes melaninogenicus; assay: as above; assay type: cell-based; conditions: Bacteriodes melaninogenicus; anaerobe, agar dilution, read after 24-hour incubation
Clostridium difficile = assay: as above; conditions: Clostridium difficile; anaerobe, agar dilution, read after 24-hour incubation
Clostridium septicum = conditions: anaerobe, agar dilution, read after 24-hour incubation
[15] = test system: Culture A83850 (Amycolatopsis albus NRRL 18532); assay: Resistance of culture A83850 to antibiotics, sensitivity discs on seeded ISP No. 2 agar plates; assay type: cell-based; conditions: disc content printed per antibiotic
Protocol: Resistance to antibiotics was measured by padding antibiotic sensitivity discs onto the surface of seeded ISP No. 2 agar plates.

| Structure (SMILES) | MIC [2] [µg/mL] | MIC [3] [µg/mL] | MIC [4] [µg/mL] | MIC [5] [µg/mL] | MIC [6] [µg/mL] | MIC [7] [µg/mL] | MIC [8] [µg/mL] | MIC (Enterococcus faecium X66) [µg/mL] | MIC [9] [µg/mL] | ED50 Value (Streptococcus pyogenes) [mg/kg × 2] | ED50 Value (Streptococcus pneumoniae) [mg/kg × 2] | ED50 Value (Staphylococcus aureus) [mg/kg × 2] | Resistance or inhibition of culture A83850 by antibiotic disc [15] | also measured |
| --- | --- | --- | --- | --- | --- | --- | --- | --- | --- | --- | --- | --- | --- | --- |
| CC(C)C[C@H](C(=O)N[C@H]1C(=O)N[C@@H](CC(N)=O)C(=O)N[C@H]2C(=O)N[C@H]3C(=O)N[C@H](C(=O)N[C@H](C(=O)O)c4cc(O)cc(O)c4-c4cc3ccc4O)[C@H](O)c3ccc(c(Cl)c3)Oc3cc2cc(c3O[C@@H]2O[C@H](CO)[C@@H](O)[C@H](O)[C@H]2O[C@H]2C[C@](C)(N)C(=O)[C@H](C)O2)Oc2ccc(cc2Cl)[C@H]1O)N(C)C [A83850A] | 8.0 (≈ 5.47 µM) | 2.0 (≈ 1.37 µM) | 2.0 (≈ 1.37 µM) | 2.0 (≈ 1.37 µM) | 4.0 (≈ 2.74 µM) | 1.0 (≈ 0.684 µM) | 1.0 (≈ 0.684 µM) | 2.0 (≈ 1.37 µM) | 1.0 (≈ 0.684 µM) | 3.62 | 2.73 | 2.87 |  | MIC (Peptococcus prevoti): 16 µg/mL (≈ 10.9 µM); MIC [1]: 2.0 µg/mL (≈ 1.37 µM); MIC [10]: 16 µg/mL (≈ 10.9 µM); MIC (Bacteriodes fragilis): 16.0 to 32.0 µg/mL; MIC [11]: 64 µg/mL (≈ 43.8 µM); MIC [12]: 32 µg/mL (≈ 21.9 µM); MIC (Eubacterium aerofaciens): 2 µg/mL (≈ 1.37 µM); MIC (Clostridium perfringens): 2 µg/mL (≈ 1.37 µM); MIC (Bacteroides corrodens): 32 µg/mL (≈ 21.9 µM); MIC [13]: 1.0 µg/mL (≈ 0.684 µM); MIC (Fusobacterium symbiosum): 4 µg/mL (≈ 2.74 µM); MIC (Bacteriodes vulgatis): 16 µg/mL (≈ 10.9 µM); MIC (Propionibacterium acnes): 8.0 µg/mL (≈ 5.47 µM); MIC [14]: 16 µg/mL (≈ 10.9 µM); MIC (Clostridium difficile): 4 µg/mL (≈ 2.74 µM); MIC (Clostridium septicum): 2 µg/mL (≈ 1.37 µM) |
| CN[C@H](CC(C)C)C(=O)N[C@H]1C(=O)N[C@@H](CC(N)=O)C(=O)N[C@H]2C(=O)N[C@H]3C(=O)N[C@H](C(=O)N[C@H](C(=O)O)c4cc(O)cc(O)c4-c4cc3ccc4O)[C@H](O)c3ccc(c(Cl)c3)Oc3cc2cc(c3O[C@@H]2O[C@H](CO)[C@@H](O)[C@H](O)[C@H]2O[C@H]2C[C@](C)(N)C(=O)[C@H](C)O2)Oc2ccc(cc2Cl)[C@H]1O [A83850B] | 4.0 (≈ 2.76 µM) | 1.0 (≈ 0.691 µM) | 1.0 (≈ 0.691 µM) | 1.0 (≈ 0.691 µM) | 1.0 (≈ 0.691 µM) | 0.5 (≈ 0.345 µM) | 0.5 (≈ 0.345 µM) | 1.0 (≈ 0.691 µM) | 0.125 (≈ 0.0864 µM) | 2.19 | 0.98 | 2.87 |  | MIC (Peptococcus prevoti): 2 µg/mL (≈ 1.38 µM); MIC [1]: 2.0 µg/mL (≈ 1.38 µM); MIC [10]: 2 µg/mL (≈ 1.38 µM); MIC (Bacteriodes fragilis): 16.0 to 32.0 µg/mL; MIC [11]: 64 µg/mL (≈ 44.2 µM); MIC [12]: 16 µg/mL (≈ 11.1 µM); MIC (Eubacterium aerofaciens): 2 µg/mL (≈ 1.38 µM); MIC (Clostridium perfringens): 2 µg/mL (≈ 1.38 µM); MIC (Bacteroides corrodens): 32 µg/mL (≈ 22.1 µM); MIC [13]: 1.0 µg/mL (≈ 0.691 µM); MIC (Fusobacterium symbiosum): 2 µg/mL (≈ 1.38 µM); MIC (Bacteriodes vulgatis): 16 µg/mL (≈ 11.1 µM); MIC (Propionibacterium acnes): 8.0 µg/mL (≈ 5.53 µM); MIC [14]: 32 µg/mL (≈ 22.1 µM); MIC (Clostridium difficile): 2 µg/mL (≈ 1.38 µM); MIC (Clostridium septicum): 1.0 µg/mL (≈ 0.691 µM) |
| CC(C)C[C@H](C(=O)N[C@H]1C(=O)N[C@@H](CC(N)=O)C(=O)N[C@H]2C(=O)N[C@H]3C(=O)N[C@H](C(=O)N[C@H](C(=O)O)c4cc(O)cc(O)c4-c4cc3ccc4O)[C@H](O)c3ccc(c(Cl)c3)Oc3cc2cc(c3O[C@@H]2O[C@H](CO)[C@@H](O)[C@H](O)[C@H]2O[C@H]2C[C@](C)(N)[C@@H](O)[C@H](C)O2)Oc2ccc(cc2Cl)[C@H]1O)N(C)C [Reduced A83850A] | 8.0 (≈ 5.47 µM) | 2.0 (≈ 1.37 µM) | 4.0 (≈ 2.73 µM) | 2.0 (≈ 1.37 µM) | 4.0 (≈ 2.73 µM) | 2.0 (≈ 1.37 µM) | 2.0 (≈ 1.37 µM) | 2.0 (≈ 1.37 µM) | 0.25 (≈ 0.171 µM) | 2.30 | 3.88 | 7.10 |  |  |
| CN[C@H](CC(C)C)C(=O)N[C@H]1C(=O)N[C@@H](CC(N)=O)C(=O)N[C@H]2C(=O)N[C@H]3C(=O)N[C@H](C(=O)N[C@H](C(=O)O)c4cc(O)cc(O)c4-c4cc3ccc4O)[C@H](O)c3ccc(c(Cl)c3)Oc3cc2cc(c3O[C@@H]2O[C@H](CO)[C@@H](O)[C@H](O)[C@H]2O[C@H]2C[C@](C)(N)[C@@H](O)[C@H](C)O2)Oc2ccc(cc2Cl)[C@H]1O [Reduced A83850B] | 4.0 (≈ 2.76 µM) | 1.0 (≈ 0.69 µM) | 2.0 (≈ 1.38 µM) | 1.0 (≈ 0.69 µM) | 2.0 (≈ 1.38 µM) | 1.0 (≈ 0.69 µM) | 0.5 (≈ 0.345 µM) | 1.0 (≈ 0.69 µM) | 0.125 (≈ 0.0863 µM) | 1.36 | 1.99 | 2.12 |  |  |
| CC[C@H](C)[C@H](N)C1=N[C@H](C(=O)N[C@@H](CC(C)C)C(=O)N[C@H](CCC(=O)O)C(=O)N[C@H](C(=O)N[C@H]2CCCCNC(=O)[C@H](CC(N)=O)NC(=O)[C@@H](CC(=O)O)NC(=O)[C@H](Cc3cnc[nH]3)NC(=O)[C@@H](Cc3ccccc3)NC(=O)[C@H]([C@@H](C)CC)NC(=O)[C@@H](CCCN)NC2=O)[C@@H](C)CC)CS1 [bacitracin] ({Ileψ(thiazoline)Cys}-L[dE]IK[dOrn]I[dF]H[dD]N; lactam 4-C) |  |  |  |  |  |  |  |  |  |  |  |  | resistant |  |
| CC(=O)OCC1=C(C(=O)O)N2C(=O)[C@@H](NC(=O)Cc3cccs3)[C@H]2SC1 [cephalothin] |  |  |  |  |  |  |  |  |  |  |  |  | inhibited |  |
| CCC[C@@H]1C[C@@H](C(=O)N[C@@H]([C@H]2O[C@H](SC)[C@H](O)[C@@H](O)[C@H]2O)[C@@H](C)O)N(C)C1 [lincomycin] |  |  |  |  |  |  |  |  |  |  |  |  | inhibited |  |

Source: patent publication US5187082A, “Process for producing A83850 antibiotics” (Eli Lilly and Company, priority 1990, dated 1993)
